Experimental data taken from ChEMBL document CHEMBL3763031, “Design, synthesis and biological evaluation of monobactams as antibacterial agents against gram-negative bacteria” (2016).
≈ marks a conversion by molar mass, not a printed value.

What was measured:
Salmonella typhi = test: Antibacterial activity against beta-lactamase producing Salmonella typhi H901 after 18 hrs by agar dilution assay; assay type: functional, Salmonella enterica subsp. enterica serovar Typhi; conditions: Salmonella enterica, H901, 18 h
Klebsiella pneumoniae [1] = test: Antibacterial activity against ESBL negative Klebsiella pneumoniae 7 after 18 hrs by agar dilution assay; assay type: functional; conditions: Klebsiella pneumoniae, 7, 18 h
Escherichia coli [2] = test: Antibacterial activity against ESBL positive Escherichia coli 09-1 after 18 hrs by agar dilution assay; assay type: functional; conditions: 09-1, 18 h
Citrobacter freundii = test: Antibacterial activity against beta-lactamase producing Citrobacter freundii 43864 after 18 hrs by agar dilution assay; assay type: functional; conditions: Citrobacter freundii, 43864, 18 h
Klebsiella pneumoniae [3] = test: Antibacterial activity against ESBL positive Klebsiella pneumoniae 09-25 after 18 hrs by agar dilution assay; assay type: functional; conditions: 09-25, 18 h
Morganella morganii = test: Antibacterial activity against beta-lactamase producing Morganella morganii 25830 after 18 hrs by agar dilution assay; assay type: functional; conditions: Morganella morganii, 25830, 18 h
Pseudomonas aeruginosa [4] = test: Antibacterial activity against BL positive Pseudomonas aeruginosa PAO1 after 18 hrs by agar dilution assay; assay type: functional; conditions: PAO1, 18 h
Pseudomonas aeruginosa [5] = test: Antibacterial activity against BL positive Pseudomonas aeruginosa 09-14 after 18 hrs by agar dilution assay; assay type: functional; conditions: 09-14, 18 h
Escherichia coli [6] = test: Antibacterial activity against ESBL negative Escherichia coli 09-20 after 18 hrs by agar dilution assay; assay type: functional; conditions: 09-20, 18 h
Providencia rettgeri = test: Antibacterial activity against Providencia rettgeri 31052 after 18 hrs by agar dilution assay; assay type: functional; conditions: Providencia rettgeri, 31052, 18 h
Klebsiella pneumoniae [7] = test: Antibacterial activity against NDM-1 positive Klebsiella pneumoniae BAA-2146 after 18 hrs by agar dilution assay; assay type: functional; conditions: BAA-2146, 18 h
Klebsiella pneumoniae [8] = test: Antibacterial activity against ESBL positive Klebsiella pneumoniae 700603 after 18 hrs by agar dilution assay; assay type: functional; conditions: Klebsiella pneumoniae, 700603, 18 h
Escherichia coli [9] = test: Antibacterial activity against ESBL negative Escherichia coli 25922 after 18 hrs by agar dilution assay; assay type: functional; conditions: Escherichia coli, 25922, 18 h
Proteus mirabilis = test: Antibacterial activity against beta-lactamase producing Proteus mirabilis 09-1 after 18 hrs by agar dilution assay; assay type: functional; conditions: 09-1, 18 h
Escherichia coli [10] = test: Antibacterial activity against ESBL negative Escherichia coli 1515 after 18 hrs by agar dilution assay; assay type: functional; conditions: Escherichia coli, 1515, 18 h
Enterobacter cloacae = test: Antibacterial activity against beta-lactamase producing Enterobacter cloacae 45301 after 18 hrs by agar dilution assay; assay type: functional; conditions: Enterobacter cloacae, 45301, 18 h
Klebsiella aerogenes = test: Antibacterial activity against beta-lactamase producing Enterobacter aerogenes 45102 after 18 hrs by agar dilution assay; assay type: functional; conditions: Klebsiella aerogenes, 45102, 18 h
Proteus vulgaris = test: Antibacterial activity against beta-lactamase producing Proteus vulgaris 29905 after 18 hrs by agar dilution assay; assay type: functional; conditions: Proteus vulgaris, 29905, 18 h
Serratia marcescens = test: Antibacterial activity against beta-lactamase producing Serratia marcescens 41002 after 18 hrs by agar dilution assay; assay type: functional; conditions: Serratia marcescens, 41002, 18 h
Pseudomonas aeruginosa [11] = test: Antibacterial activity against BL positive Pseudomonas aeruginosa 27853 after 18 hrs by agar dilution assay; assay type: functional; conditions: Pseudomonas aeruginosa, 27853, 18 h
Klebsiella pneumoniae [12] = test: Antibacterial activity against ESBL negative Klebsiella pneumoniae 09-8 after 18 hrs by agar dilution assay; assay type: functional; conditions: 09-8, 18 h
Escherichia coli [13] = test: Antibacterial activity against Escherichia coli BL21 by microbroth dilution assay; assay type: functional
Escherichia coli [14] = test: Antibacterial activity against acrAB and acrEF knock-out Escherichia coli BL21 by microbroth dilution assay; assay type: functional
Escherichia coli [15] = test: Selectivity ratio of MIC for Escherichia coli BL21 to MIC for acrAB and acrEF knock-out Escherichia coli BL21; assay type: functional

## CC1(C)[C@H](NC(=O)/C(=N\OCc2cn(CC3CC3)nn2)c2csc(N)n2)C(=O)N1S(=O)(=O)O
Salmonella typhi
  MIC: 64 µg/mL (≈ 128 µM)
Klebsiella pneumoniae [1]
  MIC: 16 µg/mL (≈ 32.1 µM)
Escherichia coli [2]
  MIC: 16 µg/mL (≈ 32.1 µM)
Citrobacter freundii
  MIC: 8 µg/mL (≈ 16 µM)
Klebsiella pneumoniae [3]
  MIC: 32 µg/mL (≈ 64.2 µM)
Morganella morganii
  MIC: > 64 µg/mL
Pseudomonas aeruginosa [4]
  MIC: > 64 µg/mL
Pseudomonas aeruginosa [5]
  MIC: > 64 µg/mL
Escherichia coli [6]
  MIC: 16 µg/mL (≈ 32.1 µM)
Providencia rettgeri
  MIC: ≤ 0.03 µg/mL
Klebsiella pneumoniae [7]
  MIC: 64 µg/mL (≈ 128 µM)
Klebsiella pneumoniae [8]
  MIC: > 64 µg/mL
Escherichia coli [9]
  MIC: 16 µg/mL (≈ 32.1 µM)
Proteus mirabilis
  MIC: > 64 µg/mL
Escherichia coli [10]
  MIC: 16 µg/mL (≈ 32.1 µM)
Enterobacter cloacae
  MIC: 8 µg/mL (≈ 16 µM)
Klebsiella aerogenes
  MIC: 32 µg/mL (≈ 64.2 µM)
Proteus vulgaris
  MIC: 1 µg/mL (≈ 2.01 µM)
Serratia marcescens
  MIC: 32 µg/mL (≈ 64.2 µM)
Pseudomonas aeruginosa [11]
  MIC: > 64 µg/mL
Klebsiella pneumoniae [12]
  MIC: 16 µg/mL (≈ 32.1 µM)

## CC1(C)[C@H](NC(=O)/C(=N\OCc2cn(CC(=O)O)nn2)c2csc(N)n2)C(=O)N1S(=O)(=O)O
Salmonella typhi
  MIC: > 64 µg/mL
Klebsiella pneumoniae [1]
  MIC: 1 µg/mL (≈ 1.99 µM)
Escherichia coli [2]
  MIC: 2 µg/mL (≈ 3.98 µM)
Citrobacter freundii
  MIC: 2 µg/mL (≈ 3.98 µM)
Klebsiella pneumoniae [3]
  MIC: 32 µg/mL (≈ 63.7 µM)
Morganella morganii
  MIC: > 64 µg/mL
Pseudomonas aeruginosa [4]
  MIC: > 64 µg/mL
Pseudomonas aeruginosa [5]
  MIC: > 64 µg/mL
Escherichia coli [6]
  MIC: 8 µg/mL (≈ 15.9 µM)
Providencia rettgeri
  MIC: ≤ 0.03 µg/mL
Klebsiella pneumoniae [7]
  MIC: > 64 µg/mL
Klebsiella pneumoniae [8]
  MIC: > 64 µg/mL
Escherichia coli [9]
  MIC: 2 µg/mL (≈ 3.98 µM)
Proteus mirabilis
  MIC: 2 µg/mL (≈ 3.98 µM)
Escherichia coli [10]
  MIC: 32 µg/mL (≈ 63.7 µM)
Enterobacter cloacae
  MIC: 1 µg/mL (≈ 1.99 µM)
Klebsiella aerogenes
  MIC: 4 µg/mL (≈ 7.96 µM)
Proteus vulgaris
  MIC: 0.125 µg/mL (≈ 0.249 µM)
Serratia marcescens
  MIC: 2 µg/mL (≈ 3.98 µM)
Pseudomonas aeruginosa [11]
  MIC: > 64 µg/mL
Klebsiella pneumoniae [12]
  MIC: 1 µg/mL (≈ 1.99 µM)

## C[C@H]1[C@H](NC(=O)/C(=N\OCc2cn(C)nn2)c2csc(N)n2)C(=O)N1S(=O)(=O)O (relative stereo)
Salmonella typhi
  MIC: > 128 µg/mL
Klebsiella pneumoniae [1]
  MIC: 1 µg/mL (≈ 2.25 µM)
Escherichia coli [2]
  MIC: 4 µg/mL (≈ 9 µM)
Citrobacter freundii
  MIC: 4 µg/mL (≈ 9 µM)
Klebsiella pneumoniae [3]
  MIC: > 128 µg/mL
Morganella morganii
  MIC: 0.5 µg/mL (≈ 1.12 µM)
Pseudomonas aeruginosa [4]
  MIC: > 128 µg/mL
Pseudomonas aeruginosa [5]
  MIC: > 128 µg/mL
Escherichia coli [6]
  MIC: > 128 µg/mL
Providencia rettgeri
  MIC: 0.125 µg/mL (≈ 0.281 µM)
Klebsiella pneumoniae [7]
  MIC: > 128 µg/mL
Klebsiella pneumoniae [8]
  MIC: > 128 µg/mL
Escherichia coli [9]
  MIC: 4 µg/mL (≈ 9 µM)
Proteus mirabilis
  MIC: 1 µg/mL (≈ 2.25 µM)
Escherichia coli [10]
  MIC: 4 µg/mL (≈ 9 µM)
Enterobacter cloacae
  MIC: 1 µg/mL (≈ 2.25 µM)
Klebsiella aerogenes
  MIC: 2 µg/mL (≈ 4.5 µM)
Proteus vulgaris
  MIC: 0.5 µg/mL (≈ 1.12 µM)
Serratia marcescens
  MIC: 2 µg/mL (≈ 4.5 µM)
Pseudomonas aeruginosa [11]
  MIC: > 128 µg/mL
Klebsiella pneumoniae [12]
  MIC: > 128 µg/mL

## CCN(CC)CC.Cc1ccc(O)c(/C=N/NC(=O)c2ccc(CO/N=C(\C(=O)N[C@@H]3C(=O)N(S(=O)(=O)O)[C@H]3C)c3csc(N)n3)cc2)c1 (relative stereo)
Salmonella typhi
  MIC: 8 µg/mL
Klebsiella pneumoniae [1]
  MIC: 2 µg/mL
Escherichia coli [2]
  MIC: 64 µg/mL
Citrobacter freundii
  MIC: 8 µg/mL
Klebsiella pneumoniae [3]
  MIC: > 64 µg/mL
Morganella morganii
  MIC: 0.12 µg/mL
Pseudomonas aeruginosa [4]
  MIC: 32 µg/mL
Pseudomonas aeruginosa [5]
  MIC: 32 µg/mL
Escherichia coli [6]
  MIC: 64 µg/mL
Providencia rettgeri
  MIC: 0.06 µg/mL
Klebsiella pneumoniae [7]
  MIC: > 64 µg/mL
Klebsiella pneumoniae [8]
  MIC: 64 µg/mL
Escherichia coli [9]
  MIC: 8 µg/mL
Proteus mirabilis
  MIC: 2 µg/mL
Escherichia coli [10]
  MIC: 0.25 µg/mL
Enterobacter cloacae
  MIC: 4 µg/mL
Klebsiella aerogenes
  MIC: 8 µg/mL
Proteus vulgaris
  MIC: 1 µg/mL
Serratia marcescens
  MIC: 8 µg/mL
Pseudomonas aeruginosa [11]
  MIC: 32 µg/mL
Klebsiella pneumoniae [12]
  MIC: 32 µg/mL

## CN(C)[C@@H]1C(O)=C(C(N)=O)C(=O)[C@@]2(O)C(O)=C3C(=O)c4c(O)cccc4[C@@](C)(O)[C@H]3C[C@@H]12 [TETRACYCLINE]
Escherichia coli [13]
  MIC: 0.5 µg/mL (≈ 1.13 µM)
Escherichia coli [14]
  MIC: 0.25 µg/mL (≈ 0.563 µM)

## CCN(CC)CC.C[C@H]1[C@H](NC(=O)/C(=N\OCc2ccc(C(=O)N/N=C/c3ccc(O)cc3O)cc2)c2csc(N)n2)C(=O)N1S(=O)(=O)O (relative stereo)
Salmonella typhi
  MIC: 8 µg/mL
Klebsiella pneumoniae [1]
  MIC: 2 µg/mL
Escherichia coli [2]
  MIC: 64 µg/mL
Citrobacter freundii
  MIC: 8 µg/mL
Klebsiella pneumoniae [3]
  MIC: > 64 µg/mL
Morganella morganii
  MIC: 0.12 µg/mL
Pseudomonas aeruginosa [4]
  MIC: 16 µg/mL
Pseudomonas aeruginosa [5]
  MIC: 16 µg/mL
Escherichia coli [6]
  MIC: 64 µg/mL
Providencia rettgeri
  MIC: ≤ 0.03 µg/mL
Klebsiella pneumoniae [7]
  MIC: > 64 µg/mL
Klebsiella pneumoniae [8]
  MIC: 64 µg/mL
Escherichia coli [9]
  MIC: 8 µg/mL
Proteus mirabilis
  MIC: 1 µg/mL
Escherichia coli [10]
  MIC: 0.25 µg/mL
Enterobacter cloacae
  MIC: 4 µg/mL
Klebsiella aerogenes
  MIC: 4 µg/mL
Proteus vulgaris
  MIC: 0.5 µg/mL
Escherichia coli [15]
  Selectivity ratio: >16
Serratia marcescens
  MIC: 4 µg/mL
Pseudomonas aeruginosa [11]
  MIC: 16 µg/mL
Klebsiella pneumoniae [12]
  MIC: 32 µg/mL

## Cn1cc(CO/N=C(\C(=O)N[C@@H]2C(=O)N(S(=O)(=O)O)C2(C)C)c2csc(N)n2)nn1
Salmonella typhi
  MIC: > 64 µg/mL
Klebsiella pneumoniae [1]
  MIC: 2 µg/mL (≈ 4.36 µM)
Escherichia coli [2]
  MIC: 2 µg/mL (≈ 4.36 µM)
Citrobacter freundii
  MIC: 4 µg/mL (≈ 8.72 µM)
Klebsiella pneumoniae [3]
  MIC: 8 µg/mL (≈ 17.4 µM)
Morganella morganii
  MIC: 0.125 µg/mL (≈ 0.273 µM)
Pseudomonas aeruginosa [4]
  MIC: > 64 µg/mL
Pseudomonas aeruginosa [5]
  MIC: > 64 µg/mL
Escherichia coli [6]
  MIC: 8 µg/mL (≈ 17.4 µM)
Providencia rettgeri
  MIC: 0.06 µg/mL (≈ 0.131 µM)
Klebsiella pneumoniae [7]
  MIC: 64 µg/mL (≈ 140 µM)
Klebsiella pneumoniae [8]
  MIC: > 64 µg/mL
Escherichia coli [9]
  MIC: 4 µg/mL (≈ 8.72 µM)
Proteus mirabilis
  MIC: 2 µg/mL (≈ 4.36 µM)
Escherichia coli [10]
  MIC: 4 µg/mL (≈ 8.72 µM)
Enterobacter cloacae
  MIC: 2 µg/mL (≈ 4.36 µM)
Klebsiella aerogenes
  MIC: 8 µg/mL (≈ 17.4 µM)
Proteus vulgaris
  MIC: 0.125 µg/mL (≈ 0.273 µM)
Serratia marcescens
  MIC: 8 µg/mL (≈ 17.4 µM)
Pseudomonas aeruginosa [11]
  MIC: > 64 µg/mL
Klebsiella pneumoniae [12]
  MIC: 8 µg/mL (≈ 17.4 µM)
